Experimental data taken from ChEMBL document CHEMBL1201862, “PubChem BioAssay data set” (2004).
Active and inactive are the calls of the source.

Tests used:
[1] = target: DNA dC->dU-editing enzyme APOBEC-3A (Homo sapiens, UniProt P31941); test: Dose Response confirmation of small molecule APOBEC3A DNA Deaminase Inhibitors via a fluorescence-based single-stranded DNA deaminase assay. [Related pubchem assays (depositor defined):AID493011, AID493024]; assay type: functional
[2] = target: DNA dC->dU-editing enzyme APOBEC-3G (Homo sapiens, UniProt Q9HC16); assay type: functional;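 also: Dose-response counterscreen measuring inhibition of APOBEC3G DNA deaminase activity, run while confirming APOBEC3A inhibitors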
Chain of DNA dC->dU-editing enzyme APOBEC-3G (Q9HC16 whole entry): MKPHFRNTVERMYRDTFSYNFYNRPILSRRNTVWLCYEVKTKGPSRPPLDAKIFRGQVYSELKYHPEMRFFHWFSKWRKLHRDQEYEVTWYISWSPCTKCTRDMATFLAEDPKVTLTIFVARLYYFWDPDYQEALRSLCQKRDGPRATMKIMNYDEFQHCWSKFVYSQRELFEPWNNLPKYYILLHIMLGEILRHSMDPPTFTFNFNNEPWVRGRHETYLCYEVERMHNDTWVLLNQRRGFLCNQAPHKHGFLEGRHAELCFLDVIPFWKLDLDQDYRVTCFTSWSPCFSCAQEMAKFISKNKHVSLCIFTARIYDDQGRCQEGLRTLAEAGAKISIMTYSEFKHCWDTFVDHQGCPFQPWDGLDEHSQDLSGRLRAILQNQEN

[3] = HEK-293T cell viability reduction – luminescence, B-cell screen hits, cytotoxicity control for BCR NF-kB inhibitor project, dose response (AID 489021); assay type: functional, cell-based;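 also: HEK-293T cells carrying an NF-kB luciferase reporter; cells exposed to compound for about 14 hours before viability readout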
[4] = target: T1, Heat shock factor protein 1 (Mus musculus, UniProt P38532); test: decrease of HSF1-responsive luciferase luminescence – cell-based, NIH3T3, dose retest, confirmation (AID 2382); assay type: functional;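 also: NIH3T3 fibroblasts with HSF1-driven luciferase reporter stressed by proteasome inhibitor MG132; luminescence from HSF1-driven luciferase expression after 8 hours of MG132 stress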
T1 sequence (P38532 whole entry): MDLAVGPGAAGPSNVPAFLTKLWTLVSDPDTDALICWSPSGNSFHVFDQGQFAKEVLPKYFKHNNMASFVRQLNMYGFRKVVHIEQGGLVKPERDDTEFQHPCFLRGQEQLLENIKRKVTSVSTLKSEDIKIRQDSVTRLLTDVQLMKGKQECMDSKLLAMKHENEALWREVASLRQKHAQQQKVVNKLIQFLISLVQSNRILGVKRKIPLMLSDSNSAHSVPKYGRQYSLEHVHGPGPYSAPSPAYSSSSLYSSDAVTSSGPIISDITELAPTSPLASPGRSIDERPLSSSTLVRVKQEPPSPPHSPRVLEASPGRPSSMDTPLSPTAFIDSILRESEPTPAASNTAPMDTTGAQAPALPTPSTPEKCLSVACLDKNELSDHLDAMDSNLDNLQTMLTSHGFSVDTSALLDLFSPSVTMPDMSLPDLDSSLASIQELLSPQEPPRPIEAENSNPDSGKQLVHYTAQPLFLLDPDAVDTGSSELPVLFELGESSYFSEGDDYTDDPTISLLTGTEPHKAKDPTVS

[5] = target: T2, High affinity choline transporter 1 (Homo sapiens, UniProt Q9GZV3); test: human choline transporter blockers, potency – cell-based, 5-point CRC, membrane potential dye, dose response (AID 504840); assay type: functional
T2 sequence (Q9GZV3 whole entry): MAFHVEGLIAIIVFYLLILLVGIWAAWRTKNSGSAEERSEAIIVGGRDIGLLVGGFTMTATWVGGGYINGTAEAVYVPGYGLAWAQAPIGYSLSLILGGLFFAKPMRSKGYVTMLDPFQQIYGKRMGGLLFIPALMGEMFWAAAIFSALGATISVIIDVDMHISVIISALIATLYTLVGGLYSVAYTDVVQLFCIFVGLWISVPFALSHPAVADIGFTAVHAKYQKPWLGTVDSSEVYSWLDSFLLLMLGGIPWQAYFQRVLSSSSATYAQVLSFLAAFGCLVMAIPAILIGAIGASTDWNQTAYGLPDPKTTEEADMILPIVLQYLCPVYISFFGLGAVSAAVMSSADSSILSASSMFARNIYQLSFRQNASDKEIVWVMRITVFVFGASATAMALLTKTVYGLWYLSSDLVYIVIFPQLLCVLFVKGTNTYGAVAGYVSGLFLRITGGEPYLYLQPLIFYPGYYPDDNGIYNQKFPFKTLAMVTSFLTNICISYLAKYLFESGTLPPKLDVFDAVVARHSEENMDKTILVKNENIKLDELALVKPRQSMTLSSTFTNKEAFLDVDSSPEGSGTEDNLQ

[6] = target: T3, Adenosylmethionine-8-amino-7-oxononanoate aminotransferase (Mycobacterium tuberculosis, UniProt P9WQ81); test: Mycobacterium tuberculosis BioA enzyme inhibitor Measured in Biochemical System Using Plate Reader - 2163-02_Inhibitor_Dose_CherryPick_Activity.; assay type: functional, Mycobacterium tuberculosis UT205
T3 sequence (P9WQ81 whole entry): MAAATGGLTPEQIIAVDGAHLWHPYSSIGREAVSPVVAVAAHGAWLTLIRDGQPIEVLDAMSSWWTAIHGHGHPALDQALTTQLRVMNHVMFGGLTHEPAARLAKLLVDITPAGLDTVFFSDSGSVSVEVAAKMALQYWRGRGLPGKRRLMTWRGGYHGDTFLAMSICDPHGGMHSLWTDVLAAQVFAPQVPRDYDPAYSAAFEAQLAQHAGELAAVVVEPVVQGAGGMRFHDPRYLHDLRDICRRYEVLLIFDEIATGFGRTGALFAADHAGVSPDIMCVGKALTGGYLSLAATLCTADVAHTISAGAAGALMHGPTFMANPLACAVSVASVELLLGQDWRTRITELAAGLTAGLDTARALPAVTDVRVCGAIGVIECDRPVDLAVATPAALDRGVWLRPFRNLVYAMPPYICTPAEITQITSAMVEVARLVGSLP

[7] = THP-1 cell cytotoxicity, dose response, cytotoxicity control for non-replicating M. tuberculosis project (AID 489025); assay type: functional
cells = assay type: functional
[8] = HepG2 cell cytotoxicity, dose response, cytotoxicity control for non-replicating M. tuberculosis project (AID 489018); assay type: functional; conditions: Mycobacterium tuberculosis
[9] = microbe, parasite or virus in culture; assay type: functional; conditions: Mycobacterium tuberculosis
[10] = target: T4, Probable nicotinate-nucleotide adenylyltransferase (Staphylococcus aureus (strain N315), UniProt P65502); assay type: functional, Staphylococcus aureus subsp. aureus N315;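 as to IC50 Mean: confirmatory dose-response retesting of NadD inhibitor hits first found in an ultra-high-throughput screen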
T4 sequence (P65502 whole entry): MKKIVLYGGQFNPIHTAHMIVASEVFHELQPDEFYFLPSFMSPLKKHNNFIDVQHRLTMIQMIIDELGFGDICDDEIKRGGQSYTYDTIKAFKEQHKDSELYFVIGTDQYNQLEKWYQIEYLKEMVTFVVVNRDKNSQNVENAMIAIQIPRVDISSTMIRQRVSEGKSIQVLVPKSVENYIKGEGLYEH

[11] = target: T4, Probable nicotinate-nucleotide adenylyltransferase; assay type: functional, Staphylococcus aureus subsp. aureus N315; conditions: read-out: IC50_Mean
P388/ADR = test: cells; assay type: functional; conditions: Mus musculus
SN12K1 = test: cells; assay type: functional; conditions: Homo sapiens
P388 = test: cells; assay type: functional; conditions: Mus musculus
[12] = growth inhibition of PfATP4-mutant resistant parasites – NITD609-resistant line, SYBR Green, dry powder, dose response (AID 1159571); assay type: functional, cell-based;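 also: parasites synchronized at ring stage by sorbitol before testing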
[13] = growth inhibition of yeast DHODH-expressing 3D7 parasites – SYBR Green, dry powder samples, dose response (AID 1159570); assay type: functional, cell-based;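 also: parasite growth measured after 72 hours of compound exposure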
[14] = Dd2 malaria parasite growth inhibition potency – SYBR Green, dry powder samples, dose response (AID 1159566); assay type: functional, cell-based;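 also: potency for growth inhibition with lower SYBR green DNA signal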
[15] = P. falciparum Dd2 growth inhibitors, dose response, SYBR Green, cherry-picked samples (AID 1159567); assay type: functional, cell-based
[16] = toxicity to human HepG2 hepatoma cells – cell-based, plate reader, dry powder samples, cytotoxicity control, dose response (AID 1159569); assay type: functional;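 also: inhibitor potency with signal falling toward the positive control level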

Chain of DNA dC->dU-editing enzyme APOBEC-3A (P31941 whole entry): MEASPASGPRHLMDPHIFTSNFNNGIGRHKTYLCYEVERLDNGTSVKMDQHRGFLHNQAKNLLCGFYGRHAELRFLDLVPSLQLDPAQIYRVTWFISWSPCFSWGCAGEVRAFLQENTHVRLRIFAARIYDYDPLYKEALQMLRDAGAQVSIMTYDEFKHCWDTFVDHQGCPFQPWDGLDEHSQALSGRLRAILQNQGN

C[N+]1(CC(=O)OCCCc2ccccc2)CCCCC1
IC50 [1]: 2.1 µM (active) | IC50 [2]: 2.42 µM (active)

Fc1ccc(C2=Nn3c(nnc3-c3[nH]nc4c3CCC4)SC2)cc1
IC50 [3]: > 80 µM (inactive)

Cc1ccc(-c2cc(C(=O)NCCCN3CCOCC3)no2)cc1
EC50 [4]: 19.1 µM (active) | IC50 [3]: > 80 µM (inactive)

CN(Cc1ccccc1)S(=O)(=O)c1ccc2ncc(C(=O)NCC3CCCO3)c(O)c2c1 (stereo not given)
IC50 [5]: 15.2 µM (active)

CCOc1cc(C=C2C(=O)NC(=O)NC2=O)ccc1OS(=O)(=O)c1ccccc1
IC50 [5]: 12.6 µM (active)

C=CCn1c(SCc2c(C(=O)OC)sc(N)c2C(=O)OC)nnc1-c1ccc(Cl)cc1
AC50 [6]: 0.244 µM (active)

Cc1cc(C)cc(OCC(=O)N2N=C(C(F)(F)F)CC2(O)C(C)(C)C)c1 (stereo not given)
IC50 [1]: 4.6 µM (active) | IC50 [2]: 5.91 µM (active)

CC(=O)Nc1ccc2c(COC(=O)CC3Sc4ccccc4NC3=O)cc(=O)oc2c1 (stereo not given)
IC50 [1]: 19.3 µM (active) | IC50 [2]: 30.7 µM (active)

COc1ccc(C(CCNCc2ccc(OC(C)C)cc2)C(C)C)cc1 (stereo not given)
CC50 [7]: 13.7 µM (active) | IC50 (cells): 23 µM (active) | CC50 [8]: 13.6 µM (active) | CC50 [9]: 23.1 µM (active)

N#CC1=C(S)N=C(N)C(c2nc(-c3ccccc3)cs2)C12CCCC2 (stereo not given)
IC50 [10]: 8.09 µM (active) | IC50 [11]: 19.1 µM (active)

CCN(CC)C(=O)Cn1c(C)c(/C=C/c2cc[n+](C)cc2)c2ccccc21
IC50 [1]: 2.08 µM (active) | IC50 [2]: 4.08 µM (active)

CCCCC(Br)C(=O)Nc1ccc(S(=O)(=O)Nc2cc(C)nc(C)n2)cc1 (stereo not given)
IC50 [5]: 15.9 µM (active)

O=C(Nc1cccnc1)C1CCN(S(=O)(=O)c2ccc(Cl)cc2)CC1
AC50 [6]: 0.711 µM (active)

CC[n+]1c(C)n(Cc2ccccc2)c2ccc(Cl)cc21
IC50 [1]: 1.39 µM (active) | IC50 [2]: 2.27 µM (active)

CCN(C(=O)CN1C(=O)NC(c2ccccc2)(c2ccc(C)c(C)c2)C1=O)C1CCCCC1 (stereo not given)
IC50 [3]: > 80 µM (inactive)

Cc1cnc(C(=O)NC2CC(C)(C)Cc3c2cnn3-c2cccc(F)c2)cn1 (stereo not given)
AC50 [6]: 1.63 µM (active)

Cc1n(CC(=O)c2ccc([N+](=O)[O-])cc2)c2c([n+]1CC(C)C)C(=O)c1ccccc1C2=O
GI50 (P388/ADR): 22.2 µM (inactive) | GI50 (SN12K1): < 0.01 µM (active) | GI50 (P388): 0.194 µM (active)

Cc1ccc(N2Cc3c(ccc4ccccc34)OP2(=S)N2CCCC2)cc1 (stereo not given)
GI50 (P388/ADR): 26.2 µM (inactive) | GI50 (SN12K1): > 77.6 µM (inactive) | GI50 (P388): 18.6 µM (inactive)

Cc1[nH]c(=O)[nH]c(=O)c1/C=C/C(=O)NC(CO)CC(C)C (stereo not given)
GI50 (P388/ADR): 174 µM (inactive) | GI50 (SN12K1): > 360 µM (inactive) | GI50 (P388): > 375 µM (inactive)

Cc1ccccc1CSCC1Nc2ccc(C(=O)NCCc3ccccc3)cc2NC1=O (stereo not given)
IC50 [10]: 6.55 µM (active) | IC50 [11]: 17.2 µM (active)

O=C(c1cccc(F)c1)N1CC[C@@H]2[C@@H](CO)Nc3ccc(-c4cccc(F)c4)cc3[C@@H]21
AC50 [6]: 0.222 µM (active)

COCC(=O)N1CC[C@@H]2[C@@H](CO)N(C)c3ccc(-c4ccc(F)cc4)cc3[C@@H]21
AC50 [6]: 0.948 µM (active)

CSCC[C@@H](NC(=O)[C@H](CC(C)C)NC(=O)C(Cc1cnc[nH]1)NC(=O)CNC(=O)[C@@H](NC(=O)[C@H](C)NC(=O)[C@H](Cc1cn(C=O)c2ccccc12)NC(=O)[C@H](CCC(N)=O)NC(=O)[C@@H](N)CC(N)=O)C(C)C)C(N)=O (stereo not given in full)
GI50 (P388/ADR): > 100 µM (inactive) | GI50 (SN12K1): > 100 µM (inactive) | GI50 (P388): > 100 µM (inactive)

NCCCCCC(CCN)SCC1OC(n2cnc3c(N)ncnc32)C(O)C1O (stereo not given)
GI50 (P388/ADR): 124 µM (inactive) | GI50 (SN12K1): 431 µM (inactive) | GI50 (P388): 637 µM (inactive)

CC(C)(C)S(=O)(=O)/C(C#N)=N/Nc1ccc(C#N)cc1
IC50 [5]: 12 µM (active)

C[C@H]1CN([C@@H](C)CO)C(=O)c2cc(NC(=O)Nc3cccc4ccccc34)ccc2O[C@H]1CN(C)C(=O)Nc1ccc(C(F)(F)F)cc1
AC50 [12]: 3.76 µM (active) | AC50 [13]: 1.86 µM (active) | AC50 [14]: 1.5 µM (active) | AC50 [15]: 2.37 µM (active) | AC50 [16]: > 100 µM (inactive)

N#C[C@@H]1[C@H](c2ccc(C3=CCCCC3)cc2)[C@H](CO)N1C(=O)NC1CCCC1
AC50 [12]: 1.41 µM (active) | AC50 [13]: 5.81 µM (active) | AC50 [14]: 0.923 µM (active) | AC50 [15]: 1.96 µM (active) | AC50 [16]: 0.338 µM (active)

O=C(Nc1ccccc1F)N1CCCCN2[C@@H](CO)[C@@H](c3ccc(C#Cc4cccnc4)cc3)[C@@H]2C1
AC50 [12]: 1.35 µM (active) | AC50 [13]: 1.95 µM (active) | AC50 [14]: 0.95 µM (active) | AC50 [15]: 1.33 µM (active) | AC50 [16]: 42.6 µM (active)

CCC(=O)N1CCC2(CC1)CN(Cc1cccc(OC)c1)[C@@H](CO)c1[nH]c3cc(OC)ccc3c12
AC50 [12]: 1.92 µM (active) | AC50 [13]: 2.56 µM (active) | AC50 [14]: 2.21 µM (active) | AC50 [15]: 2.63 µM (active) | AC50 [16]: 97.6 µM (active)

CO[C@H](C(=O)[C@@H](O)[C@@H](C)O)[C@@H]1Cc2cc3cc(OC4CC(OC5CC(O)C(O)C(C)O5)C(O)C(C)O4)c(C)c(O)c3c(O)c2C(=O)[C@H]1OC1CC(OC2CC(OC3CC(C)(O)C(O)C(C)O3)C(O)C(C)O2)C(O)C(C)O1 (stereo not given in full)
GI50 (P388/ADR): 1.33 µM (inactive) | GI50 (SN12K1): 0.348 µM (active) | GI50 (P388): 0.441 µM (active)

CC(C)CCC[C@@H](C)[C@H]1CC[C@H]2[C@@H]3C(=O)C=C4C[C@@H](O)CC[C@]4(C)[C@H]3CC[C@]12C [7-OXOCHOLESTEROL]
CC50 [9]: > 40 µM (active)
